Data: a polymer gas permeability compilation

**Q.** Which results are given for `*c1ccc(-c2ccc(N3C(=O)c4ccc([Si](C)(C)c5ccc6c(c5)C(=O)N(*)C6=O)cc4C3=O)cc2)cc1` (repeat unit)?
**A.** H2 permeability: 8.38 Barrer; N2 permeability: 0.109 Barrer; O2 permeability: 0.677 Barrer

**Q.** With `*c1ccc(Oc2ccc(N3C(=O)c4cc(Oc5ccccc5)c(-c5cc6c(cc5Oc5ccccc5)C(=O)N(*)C6=O)cc4C3=O)cc2)cc1` (repeat unit) as the compound, how does the CH4 permeability read?
**A.** Its CH4 permeability is 0.85 Barrer.

**Q.** What about the CO2 permeability of the same compound?
**A.** Its CO2 permeability is 30.1 Barrer.

**Q.** What about the N2 permeability of the same compound?
**A.** The N2 permeability was 0.83 Barrer.

**Q.** What about the O2 permeability of the same compound?
**A.** The O2 permeability was 3.59 Barrer.

**Q.** With `*O[Si](*)(C)c1ccccc1` (repeat unit) as the compound, how does the CH4 permeability read?
**A.** Its CH4 permeability is 36 Barrer.

**Q.** What about the CO2 permeability of the same compound?
**A.** Its CO2 permeability is 239 Barrer.

**Q.** And the N2 permeability?
**A.** The N2 permeability was 8.59 Barrer.

**Q.** What about the O2 permeability of the same compound?
**A.** The O2 permeability was 28.8 Barrer.

**Q.** What does the source list for `*O[Si](*)(C)C` (repeat unit)?
**A.** CH4 permeability: 1350 Barrer; CO2 permeability: 4180 Barrer; H2 permeability: 890 Barrer; N2 permeability: 351 Barrer; O2 permeability: 800 Barrer

**Q.** Which CH4 permeability does the source give for `*c1ccc(-c2ccc(Oc3ccc4c(c3)C(C)(c3ccc(Oc5ccc(-c6ccc(-n7c(=O)c8cc9c(=O)n(*)c(=O)c9cc8c7=O)cc6)cc5C(F)(F)F)cc3)CC4(C)C)c(C(F)(F)F)c2)cc1` (repeat unit) here?
**A.** The CH4 permeability was 1.52 Barrer.

**Q.** And the CO2 permeability?
**A.** The CO2 permeability was 44.7 Barrer.

**Q.** What about the N2 permeability of the same compound?
**A.** Its N2 permeability is 2.36 Barrer.

**Q.** And the O2 permeability?
**A.** The O2 permeability was 12.2 Barrer.

**Q.** What does the source list for `*NCC(C)(C)CC(C)CCNC(=O)c1ccc(C(*)=O)cc1` (repeat unit)?
**A.** CH4 permeability: 0.018 Barrer; CO2 permeability: 0.33 Barrer; N2 permeability: 0.016 Barrer; O2 permeability: 0.092 Barrer

**Q.** What does the source list for `*O[Si](*)(C)CCCCCC` (repeat unit)?
**A.** N2 permeability: 103 Barrer; O2 permeability: 236 Barrer

**Q.** With `*OC(=O)Oc1ccc(C(=C(Cl)Cl)c2ccc(*)cc2)cc1` (repeat unit) as the compound, how does the CH4 permeability read?
**A.** Its CH4 permeability is 0.27 Barrer.

**Q.** What about the CO2 permeability of the same compound?
**A.** The CO2 permeability was 6.5 Barrer.

**Q.** What about the H2 permeability of the same compound?
**A.** Its H2 permeability is 11.3 Barrer.

**Q.** What about the N2 permeability of the same compound?
**A.** Its N2 permeability is 0.26 Barrer.

**Q.** What about the O2 permeability of the same compound?
**A.** The O2 permeability was 1.4 Barrer.

**Q.** What does the source list for `*CC(*)C(=O)OCCCCCCCCCC` (repeat unit)?
**A.** CH4 permeability: 47.8 Barrer; CO2 permeability: 261 Barrer; H2 permeability: 92.7 Barrer; N2 permeability: 19 Barrer; O2 permeability: 47.6 Barrer

**Q.** With `*=CC1CCC(C=*)C1` (repeat unit) as the compound, how does the CH4 permeability read?
**A.** The CH4 permeability was 2.5 Barrer.

**Q.** And the CO2 permeability?
**A.** Its CO2 permeability is 15.4 Barrer.

**Q.** And the H2 permeability?
**A.** Its H2 permeability is 21 Barrer.

**Q.** What about the N2 permeability of the same compound?
**A.** The N2 permeability was 1.5 Barrer.

**Q.** What about the O2 permeability of the same compound?
**A.** The O2 permeability was 2.8 Barrer.

**Q.** For `*C(C(=O)OC(C)C)C(*)C(=O)OC(C)(C)C` (repeat unit), which H2 permeability is on record?
**A.** The H2 permeability was 133 Barrer.

**Q.** What about the N2 permeability of the same compound?
**A.** Its N2 permeability is 9 Barrer.

**Q.** What about the O2 permeability of the same compound?
**A.** Its O2 permeability is 21 Barrer.

**Q.** Which results are given for `*C(C)=C(*)[Si](C)(C)C` (repeat unit)?
**A.** CH4 permeability: 14500 Barrer; CO2 permeability: 31900 Barrer; H2 permeability: 15500 Barrer; N2 permeability: 5650 Barrer; O2 permeability: 12200 Barrer

**Q.** Which results are given for `*c1ccc(-c2ccc(N3C(=O)c4ccc(Oc5cc(C(C)(C)C)ccc5Oc5ccc6c(c5)C(=O)N(*)C6=O)cc4C3=O)c(OC)c2)cc1OC` (repeat unit)?
**A.** CH4 permeability: 0.16 Barrer; CO2 permeability: 6.7 Barrer; H2 permeability: 22 Barrer; N2 permeability: 0.21 Barrer; O2 permeability: 1.4 Barrer

**Q.** Which results are given for `*Cc1ccc(C*)c(C)c1` (repeat unit)?
**A.** CO2 permeability: 0.265 Barrer; H2 permeability: 0.994 Barrer; N2 permeability: 0.0157 Barrer; O2 permeability: 0.0572 Barrer

**Q.** What does the source list for `*Oc1ccc(S(=O)(=O)c2ccc(Oc3c(C)cc(C(c4cc(C)c(*)c(C)c4)(C(F)(F)F)C(F)(F)F)cc3C)cc2C(O)(C(F)(F)F)C(F)(F)F)c(C(O)(C(F)(F)F)C(F)(F)F)c1` (repeat unit)?
**A.** CO2 permeability: 81 Barrer; N2 permeability: 5.92 Barrer; O2 permeability: 14 Barrer

**Q.** With `*c1ccc2c(c1)-c1nc3ccc(-c4ccc5c(c4)nc4n5C(=O)c5cc(C(c6ccc7c(c6)C(=O)N(*)C7=O)(C(F)(F)F)C(F)(F)F)ccc5-4)cc3n1C2=O` (repeat unit) as the compound, how does the CH4 permeability read?
**A.** The CH4 permeability was 8.1 Barrer.

**Q.** And the CO2 permeability?
**A.** Its CO2 permeability is 294 Barrer.

**Q.** And the H2 permeability?
**A.** The H2 permeability was 376 Barrer.

**Q.** What about the N2 permeability of the same compound?
**A.** Its N2 permeability is 13 Barrer.

**Q.** What about the O2 permeability of the same compound?
**A.** Its O2 permeability is 65 Barrer.

**Q.** Which CH4 permeability does the source give for `*=CC1CC(C=*)C(C(F)(F)F)(C(F)(F)F)C1(F)F` (repeat unit) here?
**A.** The CH4 permeability was 9.54 Barrer.

**Q.** And the CO2 permeability?
**A.** The CO2 permeability was 102 Barrer.

**Q.** And the N2 permeability?
**A.** Its N2 permeability is 10.7 Barrer.

**Q.** And the O2 permeability?
**A.** The O2 permeability was 27.7 Barrer.

**Q.** Which results are given for `*c1ccc(-c2ccc(Oc3ccc(C4(c5ccc(Oc6ccc(-c7ccc(N8C(=O)c9ccc(C(=O)c%10ccc%11c(c%10)C(=O)N(*)C%11=O)cc9C8=O)cc7)cc6C(F)(F)F)cc5)c5ccccc5C(=O)N4c4ccccc4)cc3)c(C(F)(F)F)c2)cc1` (repeat unit)?
**A.** CH4 permeability: 0.62 Barrer; CO2 permeability: 17.1 Barrer; N2 permeability: 0.83 Barrer; O2 permeability: 4.33 Barrer

**Q.** Which CO2 permeability does the source give for `*CCC(F)(F)C(*)(F)F` (repeat unit) here?
**A.** Its CO2 permeability is 1.98 Barrer.

**Q.** What about the N2 permeability of the same compound?
**A.** Its N2 permeability is 0.182 Barrer.

**Q.** And the O2 permeability?
**A.** The O2 permeability was 0.532 Barrer.

**Q.** Which CH4 permeability does the source give for `*c1ccc(Oc2ccc(N3C(=O)c4cc(Oc5ccc(C(C)(C)C)cc5)c(-c5cc6c(cc5Oc5ccc(C(C)(C)C)cc5)C(=O)N(*)C6=O)cc4C3=O)cc2)cc1` (repeat unit) here?
**A.** Its CH4 permeability is 3.16 Barrer.

**Q.** And the CO2 permeability?
**A.** The CO2 permeability was 85.6 Barrer.

**Q.** What about the N2 permeability of the same compound?
**A.** Its N2 permeability is 2.95 Barrer.

**Q.** What about the O2 permeability of the same compound?
**A.** The O2 permeability was 11.3 Barrer.

**Q.** Which CH4 permeability does the source give for `*CC(*)c1ccc(Cl)cc1` (repeat unit) here?
**A.** Its CH4 permeability is 0.26 Barrer.

**Q.** What about the CO2 permeability of the same compound?
**A.** Its CO2 permeability is 4.3 Barrer.

**Q.** And the N2 permeability?
**A.** Its N2 permeability is 0.23 Barrer.

**Q.** What about the O2 permeability of the same compound?
**A.** The O2 permeability was 1.2 Barrer.

**Q.** With `*c1c(C)cc(C)c(N2C(=O)c3ccc(Oc4ccc(Oc5ccc6c(c5)C(=O)N(*)C6=O)cc4)cc3C2=O)c1C` (repeat unit) as the compound, how does the H2 permeability read?
**A.** The H2 permeability was 40 Barrer.

**Q.** What about the N2 permeability of the same compound?
**A.** Its N2 permeability is 0.732 Barrer.

**Q.** What about the O2 permeability of the same compound?
**A.** Its O2 permeability is 4.42 Barrer.
